Read-outs that look alike come from different tables or passages of the source.
What was measured:
mature female rabbits = assay: Additional test to determine bone growth activity (bone density by dual X-ray densitometry); assay type: in vivo, rabbit; conditions: oral once daily, 12 weeks, vs vehicle treated control
Method: Test compounds were orally administered once daily to mature female rabbits for 12 weeks. Bone density was measured by dual X-ray densitometry and results were expressed as % base line bone mineral content.

[1] = system: Human T47D breast carcinoma cells; assay: Ex vivo progestational test (T47D proliferation); assay type: cell-based; conditions: SC200, 3H-thymidine incorporation
Method: The progestational activity of the compounds was accessed by their ability to stimulate proliferation of human breast carcinoma cells. Proliferation was measured as the ability to stimulate ^3 H-thymidine incorporation into these cells in vitro. Human T47D breast carcinoma cells (American Type Tissue Collection #133-HTB) were maintained in media consisting or RPMI 1640 supplemented with 10% fetal bovine serum, 10 ug/ml insulin, 10 U/ml pennicillin, 100 ug/ml streptomycin, and 2 mM L-glutamine. Monolayer cell cultures were trypsinized and washed in assay media consisting of phenol red-free RPMI 1640 supplemented with 5% charcoal-stripped, fetal bovine serum, and the other ingredients listed above. Cells were then plated in a 96-well plate. After a 48-hour incubation period at 37° C., the conditioned media was removed and replaced with fresh media containing test compounds in DMSO (0.1% DMSO final concentration). The cell cultures were incubated for 18 to 20 hours at 37° C. ^3 H-thymidine was then added to each well and the cell cultures were incubated at 37° C. for an additional 4 hours. Labelling was stopped by addition of un labelled thymidine. The cultures were washed twice, trypsinized and then harvested onto a filter mat. Incorporated ^3 -H-thymidine was measured by liquid scintillation counting. Data was expressed as a percent stimulation above control level which was set at 100%. An SC200 value was calculated as the concentration of test material needed to stimulate ^3 H-thymidine incorporation 200% of control.
Aspects of the application of the procedure used are described in the following: C. Christensen, D. Gunter, D. Saunders and V. Malviya, Gynecol. Oncol., 28, 25 (1987); J. Puzas, R. Drivdahl, G. Howard and D. Baylink, Proc. Soc. Exp. Biol. Med., 166, 113 (1981); and I. Keydar, L. Chen, S. Karby, F. Weiss, J. Delarea, M. Raduy, S. Chaitcik and H. Brenner, Eur. J. Cancer, 15, 659 (1979)

rabbit endometrium [2] = assay: In vivo progestational test (McGinty Test); set-up: species or system rabbit (immature New Zealand White female); key: Active in Clauberg Assay; Active in McGinty Assay; conditions: injection into uterine horn, 72 hours
Method: Progestational activity was measured in vivo by the ability to stimulate the rabbit endometrium after injection into the uterine horn.
Immature New Zealand White female rabbits were injected subcutaneously for 6 days with 5.0 μg of 17β-estradiol per day. On the 7th day the rabbits were anesthetized, the abdomen opened and a uterine horn exposed. Two ligatures were placed around a segment of the uterus 3-4 cm long, leaving the major blood vessels outside the ties.
The upper ligature was tied tightly, and the lower one was left loose. A needle attached to a syringe was injected in the uterus below the second ligature and up into the area between the two ligatures. As the test material was injected, the ligature was tightened and held tight so that the needle was withdrawn without the loss of fluid. The second ligature was secured and the abdomen closed.
The rabbits were sacrificed approximately 72 hours after the injection. The uteri were removed, fixed in 10% buffered formalin, sectioned at 6μ, and stained with hematoxylin and eosin. The evaluation for endometrial proliferation was made according to a McPhail Index. Each slide was graded for each rabbit on a 0 (no response)-4 (maximum response) scale.

[3] = target: T1, progestin receptor from rabbit uterus (Oryctolagus cuniculus, UniProt P06186); assay: Progestin receptor binding (3H-R5020 displacement); conditions: rabbit uterine cytosol, 4° C., 18 h, read-out: IC50: Binding affinity for the progestin receptor from rabbit uterus
T1 construct: Cytosolic progestin receptor were obtained by mixing rabbit uterine tissue with a Tris buffer; from tissue; host or cells: rabbit uterus cytosol
How it was run: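 Displacement of the radioligand 3H-R5020 was measured in cytosol from homogenized rabbit uterus (pH 7.4 Tris/EDTA/DTT/molybdate buffer), with compounds at 5% final DMSO and about 18 h at 4 °C. Charcoal removed free ligand, scintillation counting quantified bound ligand, and IC50 was the concentration displacing half.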

[4] = system: mouse (MC3T3-E1) and human (TE-85) osteoblast-line cells; assay type: cell-based
How it was run: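 Proliferation was read as ^3H-thymidine (0.4 μCi) uptake during a 4 h pulse, which started 20 h after compound addition. Before dosing, cells sat 24 h in 0.1% FBS. Values are % times control (100%).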

rabbit endometrium [5] = assay: In vivo progestational test (Clauberg Test); set-up: species or system rabbit (immature New Zealand White female); key: Active in Clauberg Assay; Active in McGinty Assay; conditions: oral or parenteral, daily for five days
Method: Progestational activity was also measured in vivo by the abiity to stimulate the rabbit endometrium after either oral or parenteral administration.
[…]. Starting on the 7th day, the rabbits were given the test material daily for five days. The rabbits were sacrificed approximately 24 hours after the last administration, and the uteri were excised, trimmed and weighed. Portions of both uterine horns were fixed in 10% neutral formalin, sectioned at 6μ and stained with hematoxylin and eosin. Progestational activity was assessed as described above for the McGinty Test.

T1 sequence (P06186 whole entry): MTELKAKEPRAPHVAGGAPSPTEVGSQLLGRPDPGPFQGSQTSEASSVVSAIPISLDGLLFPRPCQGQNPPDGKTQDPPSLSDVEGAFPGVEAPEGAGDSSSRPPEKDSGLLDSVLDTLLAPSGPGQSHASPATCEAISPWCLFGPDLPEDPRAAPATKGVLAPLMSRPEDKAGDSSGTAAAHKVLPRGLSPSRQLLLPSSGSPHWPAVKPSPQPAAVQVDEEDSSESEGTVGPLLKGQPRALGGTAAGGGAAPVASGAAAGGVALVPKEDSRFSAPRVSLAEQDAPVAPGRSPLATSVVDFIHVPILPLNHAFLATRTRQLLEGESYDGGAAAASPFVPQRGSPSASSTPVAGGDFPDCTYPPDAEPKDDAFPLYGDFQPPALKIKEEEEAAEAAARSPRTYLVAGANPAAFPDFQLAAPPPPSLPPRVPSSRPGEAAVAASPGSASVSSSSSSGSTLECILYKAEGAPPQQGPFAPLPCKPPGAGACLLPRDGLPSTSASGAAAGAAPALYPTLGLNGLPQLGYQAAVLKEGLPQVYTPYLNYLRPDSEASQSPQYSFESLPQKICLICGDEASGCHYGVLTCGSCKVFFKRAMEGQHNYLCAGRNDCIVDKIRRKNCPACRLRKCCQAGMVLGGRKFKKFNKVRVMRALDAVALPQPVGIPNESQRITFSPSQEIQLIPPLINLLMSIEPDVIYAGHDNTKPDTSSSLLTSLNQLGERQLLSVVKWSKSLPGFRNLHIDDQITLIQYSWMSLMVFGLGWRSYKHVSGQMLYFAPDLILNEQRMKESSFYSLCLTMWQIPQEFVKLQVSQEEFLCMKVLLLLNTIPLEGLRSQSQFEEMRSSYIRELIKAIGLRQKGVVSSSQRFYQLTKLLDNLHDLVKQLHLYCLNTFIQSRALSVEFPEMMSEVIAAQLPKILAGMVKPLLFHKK

Row | SMILES | bone mineral content (mature female rabbits) | T47D: Concentration to elicit a 200% increase in T47D Human breast cell proliferation [1] | In-vivo: Active in McGinty Assay (rabbit endometrium [2]) | IC50 [3] | Osteoblast Cell Proliferation, 3H-thymidine incorporation vs control (100%) ([4]; 10^-6) | Osteoblast Cell Proliferation, 3H-thymidine incorporation vs control (100%) ([4]; 10^-7) | Osteoblast Cell Proliferation, 3H-thymidine incorporation vs control (100%) ([4]; 10^-8) | Osteoblast Cell Proliferation, 3H-thymidine incorporation vs control (100%) ([4]; 10^-9) | Osteoblast Cell Proliferation, 3H-thymidine incorporation vs control (100%) ([4]; 10^-10) | In-vivo: Active in Clauberg Assay (rabbit endometrium [5])
1 | O=C(c1ccc(Cl)c(Cl)c1)N1CCCC(c2cccs2)=N1 [Compound 280, 3-(2-Thienyl)-1-(3,4-dichlorobenzoyl)-1,4,5,6-tetrahydropyridazine] | significant increase in bone mineral content |  |  |  |  |  |  |  |  | 
2 | O=S(=O)(c1ccc(I)cc1)N1CCCC(c2ccc(Cl)c(Cl)c2)=N1 [Compound 40, 3-(3,4-dichlorophenyl)-1-(4-iodobenzenesulphonyl)-1,4,5,6-tetrahydropyridazine] |  | 26 | M | 1.18 nM | 78% | 90% | 71% | 58% | 53% | C
3 | O=S(=O)(c1cc(Cl)cc(Cl)c1)N1CCCC(c2ccc(Cl)c(C(F)(F)F)c2)=N1 [Compound 80] |  | 85 | M | 0.79 nM |  |  |  |  |  | 
4 | O=S(=O)(c1ccc(Cl)cc1)N1CCCC(c2ccc(Cl)c(Cl)c2)=N1 [Compound 12, 3-(3,4-dichlorophenyl)-1-(4-chlorobenzenesulphonyl)-1,4,5,6-tetrahydropyridazine] |  | 153 | M | 1 nM | 118% | 115% | 114% | 131% | 135% | C
5 | O=S(=O)(c1ccc2ccccc2c1)N1CCCC(c2ccc(Cl)c(Cl)c2)=N1 [Compound 42, 3-(3,4-dichlorophenyl)-1-(2-naphthylenesulfonyl)-1,4,5,6-tetrahydropyridazine] |  | 321 | M | 0.97 nM | 135% | 144% | 155% | 146% | 166% | 
6 | O=S(=O)(c1ccc(I)cc1)N1CCCC(c2ccc(Cl)c(C(F)(F)F)c2)=N1 [Compound 1, 3-(4-Chloro-3-trifluoromethylphenyl)-1-(4-iodobenzenesulfonyl)-1,4,5,6-tetrahydropyridazine] |  | 46 | M | 1.33 nM |  |  |  |  |  | C
7 | O=S(=O)(c1cccc(C(F)(F)F)c1)N1CCCC(c2ccc(Cl)cc2)=N1 [Compound 35] |  |  | M | 3.01 nM | 82% | 101% | 123% | 150% | 154% | 
8 | O=S(=O)(c1ccc(Br)cc1)N1CCCC(c2ccc(Cl)c(Cl)c2)=N1 [Compound 39, 3-(3,4-dichlorophenyl)-1-(4-bromobenzenesulphonyl)-1,4,5,6-tetrahydropyridazine] |  | 100 | M | 0.7 nM | 92% | 94% | 84% | 115% | 99% | C
9 | Cc1ccc(S(=O)(=O)N2CCCC(c3ccc(Cl)c(Cl)c3)=N2)cc1 [Compound 41, 3-(3,4-dichlorophenyl)-1-(4-methylbenzenesulphonyl)-1,4,5,6-tetrahydropyridazine] |  | 4000 | M | 1.96 nM | 138% | 158% | 166% | 144% | 116% | 
10 | O=C(c1ccc(Cl)c(Cl)c1)N1CCCC(c2ccccc2)=N1 [Compound 185, 1-(3,4-dichlorobenzoyl)-3-phenyl-1,4,5,6-tetrahydropyridazine] | significant increase in bone mineral content | 10000 |  | 3560 nM | 98% | 136% | 147% | 131% | 128% | 
11 | O=S(=O)(c1ccc(Cl)cc1)N1CCCC(c2ccc(Cl)c(C(F)(F)F)c2)=N1 [Compound 77] |  | 286 | M | 1.47 nM |  |  |  |  |  | C
12 | O=S(=O)(c1ccc2c(c1)CCCC2)N1CCCC(c2ccc(Cl)c(C(F)(F)F)c2)=N1 [Compound 78] |  | 10000 | M | 2.44 nM |  |  |  |  |  | C
13 | Cc1ccc(S(=O)(=O)N2CCCC(c3ccc(Cl)c(C(F)(F)F)c3)=N2)cc1 [Compound 82] |  | 608 | M | 2.95 nM |  |  |  |  |  | 
